The values that follow come from patent US20260125375A1 (Pfizer Inc., priority 2022, published 2026).

The target in one assay is T1, CBL-B (residues 36-427) (Homo sapiens, UniProt Q13191).
T1 construct: Purified CBL-B (residues 36-427) and C-CBL (residues 46-435) proteins from baculovirus-infected insect cells; made in house; host or cells: baculovirus-infected insect cells
Briefly: Ligand Displacement Assay (LDA), HTRF competitive binding against BODIPY-labeled fluorescent tracer, CBL-B. As to conditions: geometric mean of the number of tests, read-out: CBL-B Ki (nM) GMean. In a few lines:
(§1)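 First, the insect-cell-expressed protein is biotinylated at its amino-terminal AviTag with BirA and coupled to SA-Tb. Next, the tracer KD is determined for each protein. Finally, compounds are titrated three-fold in duplicate […], at 2% DMSO, and Ki is reported as a geometric mean.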

The target of another assay is T2, WT CBL-B (36-427) (Homo sapiens, UniProt Q13191).
T2 construct: N-terminal biotinylated WT CBL-B (36-427) and C-CBL (46-435) were captured on a streptavidin (SA) coated sensor chip
Put plainly: Surface Plasmon Resonance (SPR) assay, binding affinity and kinetics, CBL-B. Conditions: SPR at 10° C., biotinylated WT CBL-B (36-427) on streptavidin chip; geometric mean; read-out: CBL-B SPR Kd (nM) GMean. The gist of the method:
(§2)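 SPR kinetics at 10° C, run either single-cycle (0.001–1 μM, 3-fold, 6 points, 120 s on, >5400 s off) or multi-cycle (10 points, 2-fold, top 10 or 100 μM, 90 s on). Proteins were N-biotinylated CBL-B (36-427) and C-CBL (46-435) on SA surfaces, in pH 7.2 HEPES, 2% DMSO.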

A further assay addresses T3, C-CBL (46-435) (Homo sapiens, UniProt P22681).
T3 construct: N-terminal biotinylated WT CBL-B (36-427) and C-CBL (46-435) were captured on a streptavidin (SA) coated sensor chip
T3 sequence (P22681 46-435): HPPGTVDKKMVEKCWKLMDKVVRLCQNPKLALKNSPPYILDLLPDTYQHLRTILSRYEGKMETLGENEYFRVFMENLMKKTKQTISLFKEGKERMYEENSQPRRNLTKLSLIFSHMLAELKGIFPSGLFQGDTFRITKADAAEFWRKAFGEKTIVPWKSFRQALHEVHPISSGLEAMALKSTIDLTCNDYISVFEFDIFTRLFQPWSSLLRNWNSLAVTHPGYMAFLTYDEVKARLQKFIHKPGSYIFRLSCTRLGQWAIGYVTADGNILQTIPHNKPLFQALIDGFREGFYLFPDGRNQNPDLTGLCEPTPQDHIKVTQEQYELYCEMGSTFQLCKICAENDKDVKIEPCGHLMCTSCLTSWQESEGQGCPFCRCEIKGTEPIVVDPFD
Put plainly: Surface Plasmon Resonance (SPR) assay, binding affinity and kinetics, C-CBL. Conditions: SPR at 10° C., biotinylated C-CBL (46-435) on streptavidin chip; geometric mean; read-out: C-CBL SPR Kd (nM) GMean. In a few lines:
as §2

Another assay addresses T4, C-CBL (residues 46-435) (Homo sapiens, UniProt P22681).
T4 construct: Purified CBL-B (residues 36-427) and C-CBL (residues 46-435) proteins from baculovirus-infected insect cells; made in house; host or cells: baculovirus-infected insect cells
T4 sequence (P22681 46-435): T3 sequence (P22681 46-435)
Briefly: Ligand Displacement Assay (LDA), HTRF competitive binding against BODIPY-labeled fluorescent tracer, C-CBL. As to conditions: geometric mean of the number of tests, read-out: C-CBL Ki (nM) GMean. The gist of the method: as §1

With `C[C@H](c1nc(C(F)(F)F)cc2c(-c3cccc(C4(Cc5nncn5C)COC4)c3)n[nH]c12)N1CC(F)(F)C1` (single isomer, unassigned) [Example D46], the figures for the Ki at CBL-B (residues 36-427) and at C-CBL (residues 46-435) were 46.5 nM and 250 nM, respectively. Further, the values for the Kd at WT CBL-B (36-427) and on C-CBL (46-435) were 12.2 nM and 184 nM, respectively.
Turning to `C[C@@H]1CN(Cc2nc(C(F)(F)F)cc3c(-c4cccc([C@H](c5nncn5C)C5CCC5)c4)n[nH]c23)CCO1` [Example C113, 3-{3-[(R)-cyclobutyl(4-methyl-4H-1,2,4-triazol-3-yl)methyl]phenyl}-7-{[(2R)-2-methylmorpholin-4-yl]methyl}-5-(trifluoromethyl)-1H-pyrazolo[3,4-c]pyridine], the Ki was 27.1 nM at CBL-B (residues 36-427) and 233 nM at C-CBL (residues 46-435). Moreover, the Kd at WT CBL-B (36-427) was found to be 4.8 nM; at C-CBL (46-435) it was 83.6 nM.
`CN(C)Cc1nc(C(F)(F)F)cc2c(-c3cccc(C4(Cc5nncn5C)COC4)c3)n[nH]c12` [Example C51, N,N-dimethyl-1-[3-(3-{3-[(4-methyl-4H-1,2,4-triazol-3-yl)methyl]oxetan-3-yl}phenyl)-5-(trifluoromethyl)-1H-pyrazolo[3,4-c]pyridin-7-yl]methanamine]: the Ki at CBL-B (residues 36-427) worked out at 22 nM; on C-CBL (residues 46-435), 115 nM. Also, the Kd at WT CBL-B (36-427) was 17.8 nM; at C-CBL (46-435), 182 nM.
On the same counts, the results for `Cn1cnnc1CC1(c2cccc(-c3n[nH]c4c(CN5CCNC(=O)C5)nc(C(F)(F)F)cc34)c2)COC1` [Example C55, 4-{[3-(3-{3-[(4-methyl-4H-1,2,4-triazol-3-yl)methyl]oxetan-3-yl}phenyl)-5-(trifluoromethyl)-1H-pyrazolo[3,4-c]pyridin-7-yl]methyl}piperazin-2-one] are 21.2 nM, 65.3 nM, 3 nM and 27.6 nM.
Consider `CC(=O)NCC(C)c1nc(C(F)(F)F)cc2c(-c3cccc([C@H](c4nncn4C)C4CCC4)c3)n[nH]c12` (single isomer, unassigned) [Example M4], for which the figures for the Ki on CBL-B (residues 36-427) and on C-CBL (residues 46-435) were 20.5 nM and 157 nM, respectively. Besides, the Kd at WT CBL-B (36-427) came to 10.3 nM; at C-CBL (46-435), 250 nM.
For `Cn1cnnc1[C@@H](c1cccc(-c2n[nH]c3c(CN4C[C@@H](O)[C@@H](O)C4)nc(C(F)(F)F)cc23)c1)C1CCC1` [Example C75, (3R,4S)-1-{[3-{3-[(R)-cyclobutyl(4-methyl-4H-1,2,4-triazol-3-yl)methyl]phenyl}-5-(trifluoromethyl)-1H-pyrazolo[3,4-c]pyridin-7-yl]methyl}pyrrolidine-3,4-diol] the same measures were 5 nM, 54.8 nM, 4.7 nM and 97.9 nM.
On the same counts, the results for `Cn1cnnc1[C@@H](c1cccc(-c2n[nH]c3c(CNC4CCNC(=O)C4)nc(C(F)(F)F)cc23)c1)C1CCC1` (single isomer, unassigned) [Example C88] are 7.2 nM, 132 nM, 4.8 nM and 59.7 nM.
For `Cn1cnnc1CC1(c2cccc(-c3n[nH]c4c(CNC5CCC5)nc(C(F)(F)F)cc34)c2)COC1` [Example C57, N-{[3-(3-{3-[(4-methyl-4H-1,2,4-triazol-3-yl)methyl]oxetan-3-yl}phenyl)-5-(trifluoromethyl)-1H-pyrazolo[3,4-c]pyridin-7-yl]methyl}cyclobutanamine] the same measures were 18.9 nM, 96.3 nM, 3.3 nM and 116 nM.
Turning to `C[C@@H](c1nc(C(F)(F)F)cc2c(-c3cccc(C4(Cc5nncn5C)COC4)c3)n[nH]c12)N1CC[C@H](F)C1` (single isomer, unassigned) [Example D98], the Ki at CBL-B (residues 36-427) came out at 25.5 nM; on C-CBL (residues 46-435), 110 nM. The Kd at WT CBL-B (36-427) was 46 nM; on C-CBL (46-435) it was 217 nM.
On to `Cn1cnnc1CC1(c2cccc(-c3n[nH]c4c(CN5CCCC5)nc(C(F)(F)F)cc34)c2)COC1` [Example C62, 3-(3-{3-[(4-methyl-4H-1,2,4-triazol-3-yl)methyl]oxetan-3-yl}phenyl)-7-[(pyrrolidin-1-yl)methyl]-5-(trifluoromethyl)-1H-pyrazolo[3,4-c]pyridine], for which the Ki at CBL-B (residues 36-427) worked out at 34.3 nM; on C-CBL (residues 46-435), 162 nM. Further, the results for the Kd at WT CBL-B (36-427) and on C-CBL (46-435) were 8.6 nM and 111 nM, respectively.
On the same counts, the results for `C[C@@H](c1nc(C(F)(F)F)cc2c(-c3cccc([C@H](c4nncn4C)C4CCC4)c3)n[nH]c12)N1CCNC(=O)C1` (single isomer, unassigned) [Example D88] are 3.9 nM, 35.2 nM, 5.7 nM and 34.1 nM.
For `CC(C)NCc1nc(C(F)(F)F)cc2c(-c3cccc(C4(Cc5nncn5C)COC4)c3)n[nH]c12` [Example C53, N-{[3-(3-{3-[(4-methyl-4H-1,2,4-triazol-3-yl)methyl]oxetan-3-yl}phenyl)-5-(trifluoromethyl)-1H-pyrazolo[3,4-c]pyridin-7-yl]methyl}propan-2-amine] the same measures were 66.6 nM, 312 nM, 61.8 nM and 747 nM.
For the compound `Cn1cnnc1CC1(c2cccc(-c3n[nH]c4cnc(C5CC5)cc34)c2)COC1` [Example B4, 5-cyclopropyl-3-(3-{3-[(4-methyl-4H-1,2,4-triazol-3-yl)methyl]oxetan-3-yl}phenyl)-1H-pyrazolo[3,4-c]pyridine], the Ki amounted to 73.9 nM at CBL-B (residues 36-427) and 254 nM on C-CBL (residues 46-435). For the same compound, the values for the Kd on WT CBL-B (36-427) and at C-CBL (46-435) were 58.7 nM and 578 nM, respectively.
In the case of `Cn1cnnc1[C@@H](c1cccc(-c2n[nH]c3c(CN4CCNC(=O)C4)nc(C(F)(F)F)cc23)c1)C1CCC1` [Example C112, 4-{[3-{3-[(R)-cyclobutyl(4-methyl-4H-1,2,4-triazol-3-yl)methyl]phenyl}-5-(trifluoromethyl)-1H-pyrazolo[3,4-c]pyridin-7-yl]methyl}piperazin-2-one], the Ki turned out to be 15.4 nM on CBL-B (residues 36-427) and 114 nM at C-CBL (residues 46-435). Also, the figures for the Kd at WT CBL-B (36-427) and at C-CBL (46-435) were 3 nM and 82.1 nM, respectively.
As for `C[C@H](c1nc(C(F)(F)F)cc2c(-c3cccc(C4(Cc5nncn5C)COC4)c3)n[nH]c12)N1CCC1` (single isomer, unassigned) [Example D42], the Ki on CBL-B (residues 36-427) amounted to 35.3 nM; at C-CBL (residues 46-435), 163 nM. The Kd at WT CBL-B (36-427) came to 9.4 nM; at C-CBL (46-435), 59.8 nM.
Take `C[C@@H](c1nc(C(F)(F)F)cc2c(-c3cccc(C4(Cc5nncn5C)COC4)c3)n[nH]c12)N1CCCC1` (single isomer, unassigned) [Example D47]: the figures for the Ki on CBL-B (residues 36-427) and at C-CBL (residues 46-435) were 36.9 nM and 162 nM, respectively. Besides, the values for the equilibrium dissociation constant (Kd) at WT CBL-B (36-427) and at C-CBL (46-435) were 16.3 nM and 193 nM, respectively.
On the same counts, the results for `Cn1cnnc1[C@@H](c1cccc(-c2n[nH]c3c(CN[C@H]4CC[C@@H](O)C4)nc(C(F)(F)F)cc23)c1)C1CCC1` [Example D87] are 12.2 nM, 112 nM, 4.8 nM and 128 nM.
On the same counts, the results for `Cn1cnnc1[C@@H](c1cccc(-c2n[nH]c3c(CN[C@H]4C[C@@H](O)C4)nc(C(F)(F)F)cc23)c1)C1CCC1` [Example C120, (1s,3s)-3-({[3-{3-[(R)-cyclobutyl(4-methyl-4H-1,2,4-triazol-3-yl)methyl]phenyl}-5-(trifluoromethyl)-1H-pyrazolo[3,4-c]pyridin-7-yl]methyl}amino)cyclobutan-1-ol] are 13.6 nM, 105 nM, 11.1 nM and 156 nM.
As to `CC(O)c1nc(C(F)(F)F)cc2c(-c3cccc(C4(Cc5nncn5C)COC4)c3)n[nH]c12` (single isomer, unassigned) [Example K10, (1ξ)-1-[3-(3-{3-[(4-methyl-4H-1,2,4-triazol-3-yl)methyl]oxetan-3-yl}phenyl)-5-(trifluoromethyl)-1H-pyrazolo[3,4-c]pyridin-7-yl]ethan-1-ol], the figures for the Ki at CBL-B (residues 36-427) and on C-CBL (residues 46-435) were 45.1 nM and 219 nM, respectively. Further, the figures for the Kd on WT CBL-B (36-427) and on C-CBL (46-435) were 23.5 nM and 291 nM, respectively.
